The values below come from paper PMC11714206, “Massively Parallel Screening of Toll/Interleukin‐1 Receptor (TIR)‐Derived Peptides Reveals Multiple Toll‐Like Receptors (TLRs)‐Targeting Immunomodulatory Peptides” (Advanced Science, 2024).

The target of the assay is T1, MAL^TIR (Homo sapiens, UniProt P58753).
T1 construct: MAL (residues 79–221); 6xHis; made in house; host or cells: E. coli BL21 (DE3)
The experiment in a line: T‐Surf phage library (P8 and P3) selection against MAL^TIR, four rounds, NGS read counts. Type of assay: binding. Particulars: for Population: 4th round of selection against MAL TIR, share of NGS reads; for P3_MAL Rank (after) / P3_MAL Rank (before): P3 library; for P8_MAL Rank (after) / P8_MAL Rank (before): P8 library. Put shortly: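 P8 and P3 T‐Surf libraries panned against plate-coated TIR domains (5 µg mL^−1), 1 h binding at RT, acid elution and TG1/helper-phage amplification per round. After four rounds, pools were PCR-barcoded and sequenced (NovaSeq, 100 bp paired-end, Phred ≥30); peptides ranked by read counts.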

Setting [1] is: P8_MAL pool: P8 T-Surf phage library.
Setting [2] is: selection against MAL, rank after grouping.
Where [3] appears, read: selection against MAL, rank before grouping.
Where [4] appears, read: selection against MAL TIR, rank by count after grouping.
The mark [5] stands for this setting: selection against MAL TIR, rank by count before grouping.
Where [6] appears, read: 4R selection against MAL, rank after grouping.
Setting [7] is: 4R selection against MAL, rank before grouping.
The mark [8] stands for this setting: selection against MAL, rank by count after grouping.
Setting [9] is: selection against MAL, rank by count before grouping.
The mark [10] stands for this setting: P3_MAL: rank by count after grouping.
The mark [11] stands for this setting: P3_MAL: rank by count before grouping.
The mark [12] stands for this setting: P8_MAL: rank by count after grouping.
[13] abbreviates: P8_MAL: rank by count before grouping.
[14] abbreviates: P3_MAL pool: P3 T-Surf phage library.

T1 sequence (P58753 79-221): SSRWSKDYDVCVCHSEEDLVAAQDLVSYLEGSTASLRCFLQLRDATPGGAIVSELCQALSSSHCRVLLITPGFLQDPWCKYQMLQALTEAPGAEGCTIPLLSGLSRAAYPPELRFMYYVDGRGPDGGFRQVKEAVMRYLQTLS

Under setting [1], RNFVAYLFQALANKSI yielded a Population of 0.00309%.

With RPLKWKEALHQFHSRV, the “P3_MAL Rank (after)” value under setting [2] is reported as 493. The “P3_MAL Rank (before)” value under setting [3] is reported as 2562.

Consider AFLYLSDQSDPSDQF, for which the “P8_MAL Rank (after)” value under setting [4] is recorded as 237. In addition, under setting [5], the “P8_MAL Rank (before)” value came to 1915.

Regarding KERLHQWKLALTQAPI, under setting [6], the “P3_MAL Rank (after)” value stood at 661. For the same substance, under setting [7], the “P3_MAL Rank (before)” value came out at 3604.

With AFLYSLLISLPETANI, under setting [2], the “P8_MAL Rank (after)” value stood at 543. For the same substance, the “P8_MAL Rank (before)” value under setting [3] is 1810.

Take RNNFIGHQYQALYRSR: the “P8_MAL Rank (after)” value under setting [4] is on record as 235. For the same substance, the “P8_MAL Rank (before)” value under setting [5] stood at 2291.

On to PDKDKGGENAFINNIV, for which, under setting [2], the “P3_MAL Rank (after)” value is reported as 488. Moreover, the “P3_MAL Rank (before)” value under setting [3] is 2636.

Turning to TSFREGLLRLLELSKK, the “P3_MAL Rank (after)” value under setting [8] came out at 754. Under setting [9], the “P3_MAL Rank (before)” value amounted to 3239.

Consider VRHNFIGYLRDALQHR, for which, under setting [10], the “Rank (after)” value is recorded as 94. Besides, the “Rank (before)” value under setting [11] amounted to 94.

On to NQWRNALTAATNLSGG, for which, under setting [10], the “Rank (after)” value stood at 119. Also, the “Rank (before)” value under setting [11] was determined as 3403.

RLRKWKEALHQFHSWG: the “P3_MAL Rank (after)” value under setting [6] came to 636. Besides, the “P3_MAL Rank (before)” value under setting [7] was found to be 2547.

As to KEVEGWRDALTKAPI, under setting [6], the “P3_MAL Rank (after)” value turned out to be 644. Further, the “P3_MAL Rank (before)” value under setting [7] was 3576.

On to AFLYTFLVNLTHPTMF, for which the “Rank (after)” value under setting [12] is on record as 468. Further, under setting [13], the “Rank (before)” value came out at 1823.

As to WFYEPLVSQITRDTKV, the “P8_MAL Rank (after)” value under setting [6] was 586. Also, the “P8_MAL Rank (before)” value under setting [7] came out at 1294.

As to YAFTGHLHGSLLQRRV, the “P3_MAL Rank (after)” value under setting [6] turned out to be 670. Moreover, the “P3_MAL Rank (before)” value under setting [7] stood at 1376.

On to EFVLTFVINLTPRTSF, for which the “P8_MAL Rank (after)” value under setting [2] was 576. In addition, the “P8_MAL Rank (before)” value under setting [3] was found to be 2041.

In the case of AFFWAQLKSVLGNPPV, the “Rank (after)” value under setting [12] is on record as 424. Further, the “Rank (before)” value under setting [13] is reported as 1661.

As to YAFTGHPHRSLVQRGV, the “P3_MAL Rank (after)” value under setting [4] is reported as 271. Under setting [5], the “P3_MAL Rank (before)” value came to 1446.

In the case of KLFWEKLKLFLPSLSR, under setting [6], the “P8_MAL Rank (after)” value is 657. For the same substance, the “P8_MAL Rank (before)” value under setting [7] was 2687.

With TYLGNLNNALVQAGIH, under setting [2], the “P8_MAL Rank (after)” value was 490. Further, the “P8_MAL Rank (before)” value under setting [3] is listed as 2649.

As for YTALTNIGFHTFLDND, the “P3_MAL Rank (after)” value under setting [4] is reported as 195. For the same substance, the “P3_MAL Rank (before)” value under setting [5] stood at 1542.

Take AFLYTFLINLPHTNNF: the “P8_MAL Rank (after)” value under setting [6] worked out at 628. In addition, the “P8_MAL Rank (before)” value under setting [7] stood at 1838.

Take TFLGHLYNTLVQACIH: the “P8_MAL Rank (after)” value under setting [6] stood at 650. Under setting [7], the “P8_MAL Rank (before)” value worked out at 2598.

For the substance LFYGRMVSLILRDTNV, the “P8_MAL Rank (after)” value under setting [6] is listed as 639. Further, under setting [7], the “P8_MAL Rank (before)” value is given as 1100.

Consider RGFLSHLRHHLQVKEQ, for which, under setting [8], the “P3_MAL Rank (after)” value is on record as 733. Moreover, the “P3_MAL Rank (before)” value under setting [9] amounted to 2370.

FDRFHIYFLHFLLFSR: the “P8_MAL Rank (after)” value under setting [8] is reported as 680. The “P8_MAL Rank (before)” value under setting [9] was determined as 1087.

Turning to KWFWDKLIYPLSRNPQ, under setting [4], the “P3_MAL Rank (after)” value was found to be 239. In addition, the “P3_MAL Rank (before)” value under setting [5] was determined as 3510.

As to WFYGRLVSLMLRDAKR, under setting [6], the “P8_MAL Rank (after)” value is given as 595. Also, under setting [7], the “P8_MAL Rank (before)” value was determined as 1130.

For WFYERLLSLVLRDTKV, the “Rank (after)” value under setting [12] is 176. The “Rank (before)” value under setting [13] worked out at 1248.

Take RHHRGPLGSDLQYHME: under setting [2], the “P3_MAL Rank (after)” value came out at 521. In addition, under setting [3], the “P3_MAL Rank (before)” value amounted to 2572.

For the substance WF*ERLVSLILRDTKV, the Population under setting [1] came to 0.00278%.

With LKWGDPYFWRKIRYAM, under setting [2], the “P3_MAL Rank (after)” value is recorded as 530. The “P3_MAL Rank (before)” value under setting [3] is reported as 2248.

On to WFYEPLVSLILRDTKL, for which, under setting [4], the “P8_MAL Rank (after)” value was 236. Besides, the “P8_MAL Rank (before)” value under setting [5] is given as 1293.

In the case of WHFPLPLRMQELLRKM, the “Rank (after)” value under setting [10] worked out at 436. Under setting [11], the “Rank (before)” value is 1289.

Take AFLYAFLINLTHPTNI: under setting [12], the “Rank (after)” value is given as 142. The “Rank (before)” value under setting [13] is on record as 1812.

As for SFMLKFRTVLHHVHDV, the “P8_MAL Rank (after)” value under setting [6] was 583. Also, the “P8_MAL Rank (before)” value under setting [7] came to 1451.

Turning to AFYWAQLKIVLGNPTM, the “P8_MAL Rank (after)” value under setting [8] is reported as 686. Besides, the “P8_MAL Rank (before)” value under setting [9] was determined as 1786.

For the substance WSLFTVRSVLYAMSPA, the “P8_MAL Rank (after)” value under setting [2] was determined as 518. The “P8_MAL Rank (before)” value under setting [3] is listed as 1407.

On to SLLYDHLRRLGIRAIM, for which the “P8_MAL Rank (after)” value under setting [8] turned out to be 700. Further, the “P8_MAL Rank (before)” value under setting [9] is 2491.

PNLRTKGLNYLMRTKT had a Population under setting [14] of 0.00338%.

PLLYTFLINLTHPTNF: the “Rank (after)” value under setting [12] was found to be 104. Also, under setting [13], the “Rank (before)” value was 2327.

As for YFLHLLLFSRPETVYI, the “P8_MAL Rank (after)” value under setting [6] was found to be 615. Further, the “P8_MAL Rank (before)” value under setting [7] is 1508.

For the substance KNLFHELVIKNIRTFM, the “P3_MAL Rank (after)” value under setting [8] stood at 696. The “P3_MAL Rank (before)” value under setting [9] is listed as 3747.

For YAFTGYLHRYLVQRGG, under setting [10], the “Rank (after)” value is on record as 445. Further, the “Rank (before)” value under setting [11] was determined as 1356.

Consider SNLRPKVLNYLMRTKI, for which the “P3_MAL Rank (after)” value under setting [2] is 531. Besides, under setting [3], the “P3_MAL Rank (before)” value amounted to 1326.

With LRKIADLSGWTLKSFR, the “P8_MAL Rank (after)” value under setting [8] came out at 677. Also, the “P8_MAL Rank (before)” value under setting [9] stood at 2165.

AFFWAHLRTVLGKPTI: the “P8_MAL Rank (after)” value under setting [2] amounted to 529. Further, the “P8_MAL Rank (before)” value under setting [3] came out at 1657.

On to MRLPAICNVIWCSVA, for which the “Rank (after)” value under setting [10] was determined as 388. Also, under setting [11], the “Rank (before)” value is recorded as 2938.

On to AFFWAQQKSVLGDPTM, for which the “P8_MAL Rank (after)” value under setting [8] amounted to 722. Under setting [9], the “P8_MAL Rank (before)” value came out at 1646.

Consider NLWRNALTVAANLSGW, for which the “P3_MAL Rank (after)” value under setting [2] is 540. Also, the “P3_MAL Rank (before)” value under setting [3] is reported as 3318.

Consider YQWRNALTAAANLSGW, for which the Population under setting [14] turned out to be 0.00676%.

With RSLRERLWRLLALSKK, the “P3_MAL Rank (after)” value under setting [2] amounted to 577. The “P3_MAL Rank (before)” value under setting [3] was found to be 2628.

For KIWGWRDALSRNPH, the “P3_MAL Rank (after)” value under setting [8] is reported as 762. Also, the “P3_MAL Rank (before)” value under setting [9] is 3640.

The substance WSYERLVSLILRDTKV displayed a Population under setting [1] of 0.0034%.

On to RFYEAQLILVLRNTKM, for which, under setting [6], the “P8_MAL Rank (after)” value was 672. In addition, the “P8_MAL Rank (before)” value under setting [7] worked out at 2302.

As to NQWRNALTAVANLSGW, the Population under setting [14] was 0.00451%.

On to SLFLSSRFKDDADLVGQ, for which the “Rank (after)” value under setting [10] was 433. Besides, the “Rank (before)” value under setting [11] was determined as 3057.

With LFFWDSLKQLMRSDGR, the “P8_MAL Rank (after)” value under setting [4] is 283. Besides, the “P8_MAL Rank (before)” value under setting [5] turned out to be 2070.

For SSFREGLWRLMELSNK, the “P3_MAL Rank (after)” value under setting [6] was determined as 593. Moreover, under setting [7], the “P3_MAL Rank (before)” value turned out to be 3169.

Regarding LFLWDSLKQPLRSDGR, the “P8_MAL Rank (after)” value under setting [4] was 224. For the same substance, the “P8_MAL Rank (before)” value under setting [5] was found to be 2143.

Regarding RGFLSHLHRYLVQRGV, the “Rank (after)” value under setting [10] is 109. The “Rank (before)” value under setting [11] is 250.

Take TFLGHLYMRWCRRAF: under setting [6], the “P8_MAL Rank (after)” value is listed as 625. Also, the “P8_MAL Rank (before)” value under setting [7] amounted to 2560.

Take NQWRNALTAAAKLKAPI: the “P3_MAL Rank (after)” value under setting [2] was found to be 522. Also, the “P3_MAL Rank (before)” value under setting [3] amounted to 3386.

In the case of FMSHLYQGLKIVAFL, the “P3_MAL Rank (after)” value under setting [2] was found to be 523. The “P3_MAL Rank (before)” value under setting [3] is given as 1204.

In turn, WFYERLVSLILRDTKM gave a Population under setting [1] of 0.00402%.

As to YFWHALKNALAEHEKR, the “P3_MAL Rank (after)” value under setting [6] is reported as 674. Also, the “P3_MAL Rank (before)” value under setting [7] is listed as 1334.
